Experimental data reported in paper PMC12454493, “Insight on novel sulfamoylphenyl pyrazole derivatives as anticancer carbonic anhydrase inhibitors” (Molecular Diversity, 2024).
Values joined by “and” are separate entries in the source; they are usually repeats but may differ in a detail not shown here. Equal entries are not always repeated.

Columns and labels:
A498 = assay: NCI-60 one-dose SRB screen (Renal Cancer); assay type: cell-based; settings: Homo sapiens, single dose 10 µM, 48 h, read-out: Growth inhibition percent (GI %)
Method: (§1) The National Cancer Institute (NCI) Developmental Therapeutic Program (www.dtp.nci.nih.gov) selected the 20 novel synthesized compounds 4a-e, 5a-e, 6a-c, 9a-e, 10 and 11 to test for their anticancer activity at a single dose of 10 µM using SRB assay. […] Supplementary Data S3; Table S1 presents the detailed screening results of the most promising compounds. The preliminary screening’s detailed results for the remaining compounds are elucidated in the (Supplementary Data S3; Table S2).
(§2) The guidelines of the Drug Evaluation Branch’s protocol at the NCI in Bethesda served as the basis for the in vitro anticancer screening assays. at one dose 10 µM against a panel of 60 cancer cell lines. The human tumor cell lines used belonged to nine panels: leukemia, melanoma, lung, colon, CNS, ovarian, renal, prostate and breast cancers using the sulforhodamine B (SRB) assay in a 48 h drug exposure protocol.

hCA XII = hCA XII (Homo sapiens, UniProt O43570); assay: CA inhibitory activity, spectrophotometric p-NPA assay; assay type: biochemical; settings: p-NPA substrate, pH 7.5, 25 °C, triplicate; read-out: IC50 (µM) ± SD hCA XII
SF-539 = assay: NCI-60 one-dose SRB screen (CNS Cancer); assay type: cell-based; settings: Homo sapiens, single dose 10 µM, 48 h, read-out: Growth inhibition percent (GI %)
Method: as §1, §2

SF-295 = assay: NCI-60 one-dose SRB screen (CNS Cancer); assay type: cell-based; settings: Homo sapiens, single dose 10 µM, 48 h, read-out: Growth inhibition percent (GI %)
Method: as §1, §2

U251 = assay: NCI-60 one-dose SRB screen (CNS Cancer); assay type: cell-based; settings: Homo sapiens, U-251, single dose 10 µM, 48 h, read-out: Growth inhibition percent (GI %)
Method: as §1, §2

SNB-19 = assay: NCI-60 one-dose SRB screen (CNS Cancer); assay type: cell-based; settings: Homo sapiens, single dose 10 µM, 48 h, read-out: Growth inhibition percent (GI %)
Method: as §1, §2

SF-268 = assay: NCI-60 one-dose SRB screen (CNS Cancer); assay type: cell-based; settings: Homo sapiens, single dose 10 µM, 48 h, read-out: Growth inhibition percent (GI %)
Method: as §1, §2

SNB-75 = assay: NCI-60 one-dose SRB screen (CNS Cancer); assay type: cell-based; settings: Homo sapiens, single dose 10 µM, 48 h, read-out: Growth inhibition percent (GI %)
Method: as §1, §2

T-47D = assay: NCI-60 one-dose SRB screen (Breast Cancer); assay type: cell-based; settings: Homo sapiens, T47D, single dose 10 µM, 48 h, read-out: Growth inhibition percent (GI %)
Method: as §1, §2

MDA-MB-231/ATCC = assay: NCI-60 one-dose SRB screen (Breast Cancer); assay type: cell-based; settings: Homo sapiens, single dose 10 µM, 48 h, read-out: Growth inhibition percent (GI %)
Method: as §1, §2

MCF-7 = assay: NCI-60 one-dose SRB screen (Breast Cancer); assay type: cell-based; settings: Homo sapiens, MCF7, single dose 10 µM, 48 h, read-out: Growth inhibition percent (GI %)
Method: as §1, §2

HS 578T = assay: NCI-60 one-dose SRB screen (Breast Cancer); assay type: cell-based; settings: Homo sapiens, single dose 10 µM, 48 h, read-out: Growth inhibition percent (GI %)
Method: as §1, §2

MDA-MB-468 = assay: NCI-60 one-dose SRB screen (Breast Cancer); assay type: cell-based; settings: Homo sapiens, single dose 10 µM, 48 h, read-out: Growth inhibition percent (GI %)
Method: as §1, §2

BT-549 = assay: NCI-60 one-dose SRB screen (Breast Cancer); assay type: cell-based; settings: Homo sapiens, single dose 10 µM, 48 h, read-out: Growth inhibition percent (GI %)
Method: as §1, §2

MALME-3M = assay: NCI-60 one-dose SRB screen (Melanoma); assay type: cell-based; settings: Homo sapiens, single dose 10 µM, 48 h, read-out: Growth inhibition percent (GI %)
Method: as §1, §2

M14 = assay: NCI-60 one-dose SRB screen (Melanoma); assay type: cell-based; settings: Homo sapiens, single dose 10 µM, 48 h, read-out: Growth inhibition percent (GI %)
Method: as §1, §2

LOX IMVI = assay: NCI-60 one-dose SRB screen (Melanoma); assay type: cell-based; settings: Homo sapiens, single dose 10 µM, 48 h, read-out: Growth inhibition percent (GI %)
Method: as §1, §2

UACC-257 = assay: NCI-60 one-dose SRB screen (Melanoma); assay type: cell-based; settings: Homo sapiens, single dose 10 µM, 48 h, read-out: Growth inhibition percent (GI %)
Method: as §1, §2

SK-MEL-5 = assay: NCI-60 one-dose SRB screen (Melanoma); assay type: cell-based; settings: Homo sapiens, single dose 10 µM, 48 h, read-out: Growth inhibition percent (GI %)
Method: as §1, §2

MDA-MB-435 = assay: NCI-60 one-dose SRB screen (Melanoma); assay type: cell-based; settings: Homo sapiens, single dose 10 µM, 48 h, read-out: Growth inhibition percent (GI %)
Method: as §1, §2

UACC-62 = assay: NCI-60 one-dose SRB screen (Melanoma); assay type: cell-based; settings: Homo sapiens, single dose 10 µM, 48 h, read-out: Growth inhibition percent (GI %)
Method: as §1, §2

SK-MEL-28 = assay: NCI-60 one-dose SRB screen (Melanoma); assay type: cell-based; settings: Homo sapiens, single dose 10 µM, 48 h, read-out: Growth inhibition percent (GI %)
Method: as §1, §2

MOLT-4 = assay: NCI-60 one-dose SRB screen (Leukemia); assay type: cell-based; settings: Homo sapiens, single dose 10 µM, 48 h, read-out: Growth inhibition percent (GI %)
Method: as §1, §2

RPMI-8226 = assay: NCI-60 one-dose SRB screen (Leukemia); assay type: cell-based; settings: Homo sapiens, single dose 10 µM, 48 h, read-out: Growth inhibition percent (GI %)
Method: as §1, §2

HL-60(TB) = assay: NCI-60 one-dose SRB screen (Leukemia); assay type: cell-based; settings: Homo sapiens, single dose 10 µM, 48 h, read-out: Growth inhibition percent (GI %)
Method: as §1, §2

K-562 = assay: NCI-60 one-dose SRB screen (Leukemia); assay type: cell-based; settings: Homo sapiens, K562, single dose 10 µM, 48 h, read-out: Growth inhibition percent (GI %)
Method: as §1, §2

SR = assay: NCI-60 one-dose SRB screen (Leukemia); assay type: cell-based; settings: Homo sapiens, single dose 10 µM, 48 h, read-out: Growth inhibition percent (GI %)
Method: as §1, §2

CCRF-CEM = assay: NCI-60 one-dose SRB screen (Leukemia); assay type: cell-based; settings: Homo sapiens, single dose 10 µM, 48 h, read-out: Growth inhibition percent (GI %)
Method: as §1, §2

DU-145 = assay: NCI-60 one-dose SRB screen (Prostate Cancer); assay type: cell-based; settings: Homo sapiens, single dose 10 µM, 48 h, read-out: Growth inhibition percent (GI %)
Method: as §1, §2

PC-3 = assay: NCI-60 one-dose SRB screen (Prostate Cancer); assay type: cell-based; settings: Homo sapiens, single dose 10 µM, 48 h, read-out: Growth inhibition percent (GI %)
Method: as §1, §2

Chain of hCA XII (O43570 25-354): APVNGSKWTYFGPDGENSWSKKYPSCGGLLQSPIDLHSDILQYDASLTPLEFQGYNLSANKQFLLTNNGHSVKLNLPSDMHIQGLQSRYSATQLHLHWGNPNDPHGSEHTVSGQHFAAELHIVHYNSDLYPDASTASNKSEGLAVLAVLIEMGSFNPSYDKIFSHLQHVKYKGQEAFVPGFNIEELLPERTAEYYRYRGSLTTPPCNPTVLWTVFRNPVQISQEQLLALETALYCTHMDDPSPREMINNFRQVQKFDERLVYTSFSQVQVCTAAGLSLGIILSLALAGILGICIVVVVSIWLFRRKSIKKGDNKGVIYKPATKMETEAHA

NS(=O)(=O)c1ccc(NC(=O)COC(=O)c2cn(-c3ccc(S(N)(=O)=O)cc3)nc2-c2ccccc2)cc1 [Compound 4a, 2-Oxo-2-[(4-sulfamoylphenyl)amino] ethyl 3-phenyl-1-(4-sulfamoylphenyl)-1H-pyrazole-4-carboxylate]
inhibition at 10 µM (A498): < 5%
IC50 (hCA XII): 0.22 µM and 0.226 µM
inhibition at 10 µM (SF-539): < 5%
inhibition at 10 µM (SF-295): < 5%
inhibition at 10 µM (U251): < 5%
inhibition at 10 µM (SNB-19): < 5%
inhibition at 10 µM (SF-268): < 5%
inhibition at 10 µM (SNB-75): 31.1%
inhibition at 10 µM (T-47D): < 5%
inhibition at 10 µM (MDA-MB-231/ATCC): 10.5%
inhibition at 10 µM (MCF-7): < 5%
inhibition at 10 µM (HS 578T): < 5%
inhibition at 10 µM (MDA-MB-468): < 5%
inhibition at 10 µM (BT-549): 43.4%
inhibition at 10 µM (MALME-3M): 8.55%
inhibition at 10 µM (M14): 23.2%
inhibition at 10 µM (LOX IMVI): < 5%
inhibition at 10 µM (UACC-257): < 5%
inhibition at 10 µM (SK-MEL-5): < 5%
inhibition at 10 µM (MDA-MB-435): < 5%
inhibition at 10 µM (UACC-62): < 5%
inhibition at 10 µM (SK-MEL-28): < 5%
inhibition at 10 µM (MOLT-4): < 5%
inhibition at 10 µM (RPMI-8226): < 5%
inhibition at 10 µM (HL-60(TB)): 16.6%
inhibition at 10 µM (K-562): 16.7%
inhibition at 10 µM (SR): < 5%
inhibition at 10 µM (CCRF-CEM): < 5%
inhibition at 10 µM (DU-145): < 5%
inhibition at 10 µM (PC-3): < 5%
